Assay results: patent US4921871A, “Enolamides, pharmaceutical compositions and methods of use thereof for treating inflammation” (Warner-Lambert Company, priority 1987, dated 1990)

Target: T1, human leukocyte 5-lipoxygenase (Homo sapiens, UniProt P09917)
T1 construct: endogenous in cells; host or cells: leukocytes from fresh human blood
T1 sequence (P09917 1-674): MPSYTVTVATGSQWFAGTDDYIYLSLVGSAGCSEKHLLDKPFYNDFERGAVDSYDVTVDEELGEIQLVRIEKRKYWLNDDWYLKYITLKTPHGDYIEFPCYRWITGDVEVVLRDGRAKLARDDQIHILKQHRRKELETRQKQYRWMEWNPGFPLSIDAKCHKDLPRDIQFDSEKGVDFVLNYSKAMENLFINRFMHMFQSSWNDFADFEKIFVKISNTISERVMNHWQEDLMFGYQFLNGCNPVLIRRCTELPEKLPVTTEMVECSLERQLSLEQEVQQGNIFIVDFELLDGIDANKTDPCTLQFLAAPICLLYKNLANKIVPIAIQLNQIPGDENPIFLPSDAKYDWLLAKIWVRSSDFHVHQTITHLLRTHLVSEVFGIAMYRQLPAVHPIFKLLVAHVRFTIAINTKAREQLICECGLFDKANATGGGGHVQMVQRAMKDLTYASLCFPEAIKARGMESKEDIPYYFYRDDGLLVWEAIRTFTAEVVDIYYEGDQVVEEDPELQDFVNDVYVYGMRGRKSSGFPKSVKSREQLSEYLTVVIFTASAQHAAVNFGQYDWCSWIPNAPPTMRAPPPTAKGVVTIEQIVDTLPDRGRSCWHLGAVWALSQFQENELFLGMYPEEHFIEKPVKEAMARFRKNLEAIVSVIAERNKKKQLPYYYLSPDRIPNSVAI
Assay: 5-Lipoxygenase assay in human leukocytes, formation of 5-HETE (5LOA; 5LOA1 or 5LOA2 not specified)
Assay type: cell-based
Excerpt: To Evaluate the Effect of Each Compounds as a 5-Lipoxygenase Inhibitor in Comparison to Standard Reference Agents in Human Leukocytes (5LOAl)
The purpose of this assay is to evaluate the activity of each compound as an inhibitor of human leukocyte 5-lipoxygenase.
Arachidonic acid and calcium ionophore A23l87 are obtained from Sigma (St. Louis, Mo.). Silica gel plates, GF are obtained from Analtech (Newark, Del.). Arachidonic acid, (1-^14 C) and 5-HETE (^3 H), 5 (S)-hydroxy-6-trans, 8,11,14-cis eicosatetraenoic acid, are obtained from New England Nuclear (Boston, Mass.). Six percent Dextran-70 in 0.9% NaCl is obtained from Cutter Labs (Berkeley, Calif.).
Fresh blood from normal adult men who had not received any drugs for at least the previous five days is obtained by the Community Research Clinic (WL/PD) using venipuncture and collected into heparinized vacuotainer tubes. To every 100 ml of pooled blood is added 25 ml of dextran solution (6% dextran -70 in 0.9% sodium chloride containing 3% dextrose) and this is mixed gently in a plastic cylinder. The mixture is left to stand at room temperature for at least 90 minutes. The upper layer which is rich in leukocytes and platelets is then carefully decanted into 50 ml plastic tubes and centrifuged at about 100×g for eight minutes in an IEC centrifuge and rotor number 269 (about 600 rpm). The supernatant fluid is discarded and the pellet is resuspended in 10 ml of 0.87% ammonium chloride for exactly two minutes. This procedure is to lyse completely contaminating red blood cells. Leukocytes are then separated by centrifugation for ten minutes. The pellet is washed three times by suspension in 20 ml PBS (sodium chloride, 7.1 g; Na2 HPO4, 1.15 g; KH2 PO4, 0.2 g, and KCl, 0.2 g/L) and centrifuged as before. The final pellet is suspended in PBS containing 0.87 mM CaCl2. Viability of the cells is then checked using trypan blue exclusion method and is found to be over 90%.
Leukocyte cells in suspension (0.98 ml) are incubated with or without test compounds for five minutes at 37° C. in a shaking water bath. At this time a 17 μl mixture is prepared per 1 ml of cell suspension: 100 mM arachidonic acid, 1 μl, 0.05 μCi ^14 C-arachidonic acid in 5 .rho.l; 1 mM calcium ionophore A23187, 10 μl (1). This mixture is added and the incubation continued for five minutes. The reaction is stopped by adding four volumes of absolute ethanol and the mixture is kept in ice for 30 minutes. The floculated precipitate is separated by centrifugation at about 37,000×g for 20 minutes (Beckman Instruments rotor number 40). The alcohol extract is taken to dryness under a stream of nitrogen and the residue is dissolved in 100-200 μl absolute ethanol. At the time any turbidity is removed by centrifugation. An aliquot (25-50 μl) is applied onto 20×20 cm silica gel TLC plate and developed using the following solvent system: diethyl ether, petroleum ether (2040° C.), acetic acid (50:50: 1 v/v). Zones of 1 cm apart are scraped from the TLC plate and transferred to mini-vials. Methanol (0.5 ml) is added to dissolve the radioactivity adsorbed to the silica gel and scintillation fluid (H.P., Beckman), 5 ml is then added and vials are counted in a liquid scintillation counter. A sample of ^3 H-5-HETE is applied and used for the identification of the formed 5-HETE.
Total radioactivity in the test as well as the control samples are normalized and the amount of 5-HETE present is calculated accordingly.
IC50 values are defined as the concentrations of test agents which caused a 50% inhibition of the formation of 5-HETE as compared to control and are determined by inspection of the concentration-response curves.
The formation of 5-HETE in human leukocytes is considered a measure of 5-lipoxygenase activity. The protocol is described in the following.
Fresh heparinized or EDTA treated human blood is mixed with 6% dextran-3% dextrose in isotonic saline in the ratio 0.25 ml dextran solution per 1.0 ml blood. […]

Structure (SMILES) | 5LOA, % Inhibition (2.00 E -5 M) | 5LOA, % Inhibition (5.00 E -6 M)
O=C(Nc1ccc(CCc2ccc(Cl)c(Cl)c2)cc1)C(=O)c1sc2ccccc2c1O [Example 136, Benzo[b]thiophene-2-acetamide, N-[4-[2-(3,4-dichlorophenyl)ethyl]phenyl]-3-hydroxy-α-oxo] | +2.2% | +1.4%
COc1c(C(=O)Nc2ccc(CCc3ccc(Cl)c(Cl)c3)cc2)sc2ccccc12 [Example 147, Benzo[b]thiophene-2-carboxamide, N-[4-[2-(3,4-dichlorophenyl)ethyl]phenyl]-3-methoxy] | 13.8% | 5.5%
